The text below walks through data of PubChem BioAssay AID493077 (The Scripps Research Institute Molecular Screening Center, 2011).

Calls of active or inactive are those of the source.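 The calls were made as follows: active = Zta binding inhibitor with IC50 at or below 10 µM; inactive = IC50 above 10 µM.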

The target in this assay is Lytic switch protein BZLF1 (Epstein-Barr virus (strain B95-8)) (UniProt P03206). Put plainly: Zta-ZRE interaction blockers, IC50 testing – biochemical, fluorescence polarization, dose response, assay provider, counter-screen for EBNA-1 inhibitor project, late-stage follow-up (AID 493077). To be noted: purified Zta, Cy5-ZRE DNA. Background: In fluorescence polarisation assays a small probe gives low polarisation when free and higher when bound to something large.
Sequence of Lytic switch protein BZLF1 (Epstein-Barr virus (strain B95-8)) (P03206 whole entry, looked up): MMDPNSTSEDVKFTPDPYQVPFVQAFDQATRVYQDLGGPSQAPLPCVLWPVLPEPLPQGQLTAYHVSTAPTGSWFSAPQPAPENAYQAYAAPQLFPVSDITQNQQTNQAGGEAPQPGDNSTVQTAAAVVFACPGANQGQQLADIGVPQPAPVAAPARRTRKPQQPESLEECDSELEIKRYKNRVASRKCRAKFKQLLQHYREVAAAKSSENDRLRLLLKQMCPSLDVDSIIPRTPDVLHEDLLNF
Broadly, the IC50 is the concentration that gives 50% inhibition. For `Cc1ccc(C(=O)Nc2nc3cc(F)ccc3s2)cc1C`, the IC50 is > 111 µM (inactive).
Regarding `Cc1ccc(C(=O)Nc2nc3ccc(Br)cc3s2)cc1C`, the IC50 is > 111 µM (inactive).
Consider `Cc1cc(C(=O)CSc2nnnn2-c2ccccc2)c(C)n1C`, for which the IC50 is > 111 µM (inactive).
With `Cc1ccc(-n2nnnc2SCC(=O)c2cc(C)n(CC3CCCO3)c2C)cc1` (stereo not given), the IC50 was > 111 µM (inactive).
The figure for `COc1ccc2nc(NC(=O)c3ccc(C)c(C)c3)sc2c1` is > 111 µM (inactive); for `Cc1cc(C(=O)CSc2nnnn2-c2cccc(F)c2)c(C)n1CC1CCCO1` (stereo not given) it is > 111 µM (inactive).
Regarding `Cc1cccc(C(=O)Nc2nc3ccc(S(C)(=O)=O)cc3s2)c1`, the IC50 was > 111 µM (inactive).
In the case of `Cc1ccccc1-n1nnnc1SCC(=O)c1cc(C)n(CC2CCCO2)c1C` (stereo not given) it was > 111 µM (inactive); in that of `COc1ccccc1C(=O)Nc1nc2ccc(S(C)(=O)=O)cc2s1`, > 111 µM (inactive).
Turning to `Cc1cc(C(=O)CSc2nnnn2C)c(C)n1CC1CCCO1` (stereo not given), the IC50 was > 111 µM (inactive).
As to `COc1ccc(C(=O)Nc2nc3ccc(S(C)(=O)=O)cc3s2)cc1`, the IC50 was > 111 µM (inactive).
For the molecule `Cc1ccc(C(=O)Nc2nc3cc(Br)ccc3s2)cc1C`, the IC50 was > 111 µM (inactive).
The figure for `CS(=O)(=O)c1ccc2nc(NC(=O)c3cccc(F)c3)sc2c1` is > 111 µM (inactive).
In the case of `COCCn1c(C)cc(C(=O)CSc2nnnn2-c2ccccc2)c1C` it was > 111 µM (inactive); in that of `CS(=O)(=O)c1ccc2nc(NC(=O)c3cccc(Cl)c3)sc2c1`, > 111 µM (inactive); in that of `COc1cccc(C(=O)Nc2nc3ccc(S(C)(=O)=O)cc3s2)c1`, > 111 µM (inactive).
As to `Cc1cc(C(=O)CSc2nnnn2-c2ccc(Cl)cc2)c(C)n1CC1CCCO1` (stereo not given), the IC50 was > 111 µM (inactive).
The figure for `Cc1ccc(C(=O)Nc2nc3ccc(S(C)(=O)=O)cc3s2)cc1` is > 111 µM (inactive).
The figure for `Cc1cccc(-n2nnnc2SCC(=O)c2cc(C)n(CC3CCCO3)c2C)c1` (stereo not given) is > 111 µM (inactive).
The figure for `COc1ccc2sc(NC(=O)c3ccc(C)c(C)c3)nc2c1` is > 111 µM (inactive).
`Cc1cc(C(=O)CSc2nnnn2-c2ccccc2)c(C)n1Cc1cccs1`: the IC50 is > 111 µM (inactive).
The figure for `COc1ccc(-n2nnnc2SCC(=O)c2cc(C)n(CC3CCCO3)c2C)cc1` (stereo not given) is > 111 µM (inactive); for `COc1cccc2sc(NC(=O)c3ccc(C)c(C)c3)nc12` it is > 111 µM (inactive).
In the case of `CCn1c(C)cc(C(=O)CSc2nnnn2-c2ccccc2)c1C` it was > 111 µM (inactive); in that of `CS(=O)(=O)c1ccc2nc(NC(=O)c3ccccc3F)sc2c1`, > 111 µM (inactive); in that of `Cc1ccccc1C(=O)Nc1nc2ccc(S(C)(=O)=O)cc2s1`, > 111 µM (inactive).
As to `CS(=O)(=O)c1ccc2nc(NC(=O)c3ccccc3Cl)sc2c1`, the IC50 was > 111 µM (inactive).
In the case of `O=C(CSc1nnnn1-c1ccccc1)c1ccn(CC2CCCO2)c1` (stereo not given) it was > 111 µM (inactive); in that of `Cc1cc(C(=O)CSc2nnnn2C2CC2)c(C)n1CC1CCCO1` (stereo not given), > 111 µM (inactive).
In the case of `CS(=O)(=O)c1ccc2nc(NC(=O)c3ccc(Cl)cc3)sc2c1` it was > 111 µM (inactive).
